Test results published in PubChem BioAssay (NCI).
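Briefly, cells in 96-well plates were exposed to five compound concentrations for 48 h, and endpoints were estimated by linear interpolation. At the GI50, growth is halved. The concentration for full growth arrest is given as TGI.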

What was measured:
Assay in all cases: growth of human tumour cells (NCI), 48 h
CAKI-1 renal = test system: CAKI-1 renal
CCRF-CEM leukemia = test system: CCRF-CEM leukemia
HL-60(TB) leukemia = test system: HL-60(TB) leukemia
HOP-62 NSCLC = test system: HOP-62 NSCLC
MCF7 breast = test system: MCF7 breast
PC-3 prostate = test system: PC-3 prostate
SF-268 CNS = test system: SF-268 CNS
SK-MEL-2 melanoma = test system: SK-MEL-2 melanoma
SK-MEL-5 melanoma = test system: SK-MEL-5 melanoma
SNB-19 CNS = test system: SNB-19 CNS

SMILES	GI50 (CAKI-1 renal) [µM]	TGI (CAKI-1 renal) [µM]	GI50 (CCRF-CEM leukemia) [µM]	TGI (CCRF-CEM leukemia) [µM]	GI50 (HL-60(TB) leukemia) [µM]	GI50 (HOP-62 NSCLC) [µM]	TGI (HOP-62 NSCLC) [µM]	GI50 (MCF7 breast) [µM]	TGI (MCF7 breast) [µM]	GI50 (PC-3 prostate) [µM]	TGI (PC-3 prostate) [µM]	GI50 (SF-268 CNS) [µM]	TGI (SF-268 CNS) [µM]	GI50 (SK-MEL-2 melanoma) [µM]	TGI (SK-MEL-2 melanoma) [µM]	GI50 (SK-MEL-5 melanoma) [µM]	TGI (SK-MEL-5 melanoma) [µM]	GI50 (SNB-19 CNS) [µM]	TGI (SNB-19 CNS) [µM]	TGI (HL-60(TB) leukemia) [µM]
COc1ccc(CC(NC(=O)[C@H](C)NC(=O)CN2CCOCC2)C(=O)N[C@@H](Cc2ccccc2)C(=O)[C@@]2(C)CO2)cc1 (some centres not stated)	4.29	> 57.8	0.0859	> 100	0.157	0.191	0.453	0.129	> 41.6	0.229	0.631	0.245	0.708	0.264	0.974	0.177	0.379	0.651	> 100	–
O=C(Nc1ccc(Cl)cc1)c1cc(S(=O)(=O)Nc2nnc(-c3ccccc3)c(-c3ccccc3)n2)c(SCc2ccccc2)cc1Cl	24.8	> 59	29.7	76.8	23.3	26.6	> 58.5	29.6	> 92	39.8	> 100	26.9	> 68.3	41.3	> 100	18.1	39.4	37.9	> 67	> 68.3
CCN(CC)CCOc1ccc2c(c1)C(=O)c1cc(OCCN(CC)CC)ccc1-2	30.2	> 100	4.81	21	3.04	8.12	28	3.44	14.8	5.64	26.2	8.5	33.1	11.3	24.4	12.2	24.6	26.3	61.7	17.5
CC1SC(c2c(Cl)cccc2Cl)N(NC(=O)C(O)c2ccccc2)C1=O (configuration not stated)	62.1	> 100	74.6	> 100	94	89.3	> 100	74.2	> 100	39.7	> 100	> 100	> 100	> 100	> 100	68.4	> 100	> 100	> 100	> 100
O=S(=O)(O)/C(=C\c1ccccc1)c1ccccc1 (tested in a mixture with another compound)	–	> 100	–	> 100	–	–	> 100	–	> 100	–	> 100	–	> 100	–	> 100	–	> 100	–	> 100	> 100
CC(O)(CNS(=O)(=O)c1ccccc1)c1ccccc1 (configuration not stated)	–	> 100	–	> 100	–	–	> 100	–	> 100	–	> 100	–	> 100	–	> 100	–	> 100	–	> 100	> 100
COC(=O)C1(C2CC/C(C)=C/CC/C(C)=C/CC[C@@]3(C)O[C@@H]3C2)CC1 (some centres not stated)	32.1	> 85	25.7	65.3	25.2	25.8	65.8	51.1	> 100	36.5	> 100	> 100	> 100	> 100	> 100	56.1	> 100	> 100	> 100	> 83.5
NCCP(=O)(O)O	–	> 100	–	> 100	–	–	> 100	–	> 100	–	> 100	–	> 100	–	> 100	–	> 100	–	> 100	> 100
O=C(O)c1cscc1Cc1cccs1	–	> 100	–	> 100	–	–	> 100	–	> 100	–	> 100	–	> 100	–	> 100	–	> 100	–	> 100	> 100
C1=C(c2ccccc2)C(c2ccc(OCCN3CCCCC3)cc2)Oc2ccccc21 (configuration not stated)	1.34	2.75	2.46	6.46	1.73	1.67	3.29	0.441	1.88	1.79	3.25	2.66	9.93	2.03	4.33	1.78	3.16	2.06	4.16	3.76
COc1ccc2c(c1)cn1c3ccc(O)cc3[nH]c(=O)c21	0.302	16.3	0.149	4.66	0.216	0.258	17.9	0.366	1.95	0.244	16.4	0.136	19.1	0.215	2.08	0.0362	1.32	0.203	19.5	1.2
Cc1nc2cc(Nc3nc(Nc4ccc(F)cc4)nc(N4CCN(C)CC4)n3)ccc2n1Cc1ccccc1	2.19	5.4	1.93	5.47	1.34	1.85	3.65	1.36	3.38	2.04	5.4	1.86	4.08	1.97	3.58	1.54	2.89	2.47	7.42	3.36
N#C/C(N)=C(\C#N)N=Cc1csc2ccccc12	43.3	> 100	> 100	> 100	> 100	15	34.6	3.41	> 100	47.3	> 100	–	–	> 100	> 100	22.9	> 100	27.7	71.9	> 100
O=S(=O)(NCCNc1cc(-c2cn(-c3ccccc3)nc2-c2cccc(O)c2)ccn1)c1ccc(Cl)cc1	4.46	> 100	3.4	28.6	2.42	2.87	13.7	2.74	9.43	2.45	12	2.51	8.94	2.4	5.71	2.02	4	4.26	63.7	5.98
